The results in this text go back to patent US9796700B2 (Celgene CAR LLC, priority 2013, dated 2017).

The target in one assay is Erk1 (Homo sapiens (Human), UniProt P27361). In words: Protein Mass Modification Assay (intact protein MALDI). The assay is classed as binding. In short, it runs like this: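 Percent covalent modification comes from the intact-protein MALDI centroid mass shift, treated versus control, divided by compound MW. Before analysis, human Erk1 was exposed to compound at 10-fold excess over protein for 60 min at room temperature.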

The target in a further assay is MEK1 activated ERK1 (Homo sapiens (Human), UniProt P27361). Description: Omnia continuous-read kinase assay for potency against MEK1 activated ERK1. The assay is classed as biochemical. An outline of the steps:
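Apparent IC50 came from initial reaction slopes (RFU vs time) plotted against log inhibitor with a variable-slope fit. Reactions were started with ERK1 (4 nM final) added to 50 μM ATP, roughly at its appKM, and 10 μM Sox-conjugated ST17 peptide in 20 mM Tris pH 7.5, 5 mM MgCl2. Fluorescence was monitored every 71 seconds.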

Setting [1] is: MEK1 activated ERK1, WT, ATP at KM.

Where two headings read alike, the source gives them in different places. A value given as a limit tells only on which side of the number the result lay.

Erk1, sequence (P27361 whole entry, looked up): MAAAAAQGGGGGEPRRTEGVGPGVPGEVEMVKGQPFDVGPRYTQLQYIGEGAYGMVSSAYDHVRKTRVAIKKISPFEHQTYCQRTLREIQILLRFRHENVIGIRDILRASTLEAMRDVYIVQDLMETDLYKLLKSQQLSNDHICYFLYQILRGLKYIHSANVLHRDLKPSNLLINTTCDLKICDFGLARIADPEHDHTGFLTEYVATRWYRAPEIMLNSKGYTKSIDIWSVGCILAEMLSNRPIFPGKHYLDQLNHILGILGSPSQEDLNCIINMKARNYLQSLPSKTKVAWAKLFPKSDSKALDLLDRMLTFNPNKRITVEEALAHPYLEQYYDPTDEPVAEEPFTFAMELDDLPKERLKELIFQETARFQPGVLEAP
MEK1 activated ERK1, sequence (P27361 whole entry): as the sequence (P27361 whole entry, looked up) above

On to `C=CC(=O)Nc1cc(F)ccc1Nc1nc(Nc2cc(C(N)=O)ccc2OC)ncc1Cl` [Compound I-208, 3-((4-((2-acrylamido-4-fluorophenyl)amino)-5-chloropyrimidin-2-yl)amino)-4-methoxybenzamide], for which the “ERK1 Mass Mod (%)” value on Erk1 is given as “E (provided a mass modification of ≧70%)”. Besides, the concentration for half-maximal inhibition (IC50) on MEK1 activated ERK1 (setting [1]) was < 100 nM.
For `C=CC(=O)Nc1cc(OC)ccc1Oc1nc(Nc2ccc(N3CCC[C@@H]3CO)cc2OC)ncc1C(N)=O` [Compound I-264, (R)-4-(2-acrylamido-4-methoxyphenoxy)-2-((4-(2-(hydroxymethyl)pyrrolidin-1-yl)-2-methoxyphenyl)amino)pyrimidine-5-carboxamide], the “ERK1 Mass Mod (%)” value on Erk1 is listed as “F (key: E: provided a mass modification of ≧70%; F: provided a mass modification of 31-69%; G: proived a mass modification ≦30%)”. Moreover, the IC50 on MEK1 activated ERK1 (read-out: ERK1 Omnia WT ATP KM IC50) lay within 501 to 999 nM.
As to `C=CC(=O)Nc1cc(F)ccc1Nc1nc(Nc2cc(OC)ncc2C)ncc1C(F)(F)F` [Compound I-322, N-(5-fluoro-2-((2-((2-methoxy-5-methylpyridin-4-yl)amino)-5-(trifluoromethyl)pyrimidin-4-yl)amino)phenyl)acrylamide], the “ERK1 Mass Mod (%)” value on Erk1 is reported as “E (provided a mass modification of ≧70%)”. For the same compound, the IC50 at MEK1 activated ERK1 (setting [1]) was < 100 nM.
Consider `C=CC(=O)Nc1cc(C)ccc1Nc1nc(Nc2cc(OC)nc(N3CCC3)c2)ncc1C(F)(F)F` [Compound I-329, N-(2-((2-((2-(azetidin-1-yl)-6-methoxypyridin-4-yl)amino)-5-(trifluoromethyl)pyrimidin-4-yl)amino)-5-methylphenyl)acrylamide], for which the “ERK1 Mass Mod (%)” value at Erk1 was “E (provided a mass modification of ≧70%)”. Besides, the IC50 on MEK1 activated ERK1 (setting [1]) is > 1000 nM.
The like results for `C=CC(=O)Nc1ccccc1Nc1nc(Nc2cc(C(=O)NOC)ccc2C)ncc1Cl` [Compound I-191, 3-((4-((2-acrylamidophenyl)amino)-5-chloropyrimidin-2-yl)amino)-N-methoxy-4-methylbenzamide] were, in that order, “E (provided a mass modification of ≧70%)” and < 100 nM.
Take `C=CC(=O)Nc1ccccc1Nc1nc(NC2CCN(C=O)CC2)ncc1Cl` [Compound I-124, N-(2-((5-chloro-2-((1-formylpiperidin-4-yl)amino)pyrimidin-4-yl)amino)phenyl) acrylamide]: the “ERK1 Mass Mod (%)” value on Erk1 is recorded as “E (provided a mass modification of ≧70%)”. In addition, the IC50 on MEK1 activated ERK1 (setting [1]) is < 100 nM.
As for `C=CC(=O)Nc1ccccc1Nc1nc(Nc2cc(C(N)=O)ccc2C#N)ncc1C(F)(F)F` [Compound I-71, 3-((4-((2-Acrylamidophenyl)amino)-5-(trifluoromethyl)pyrimidin-2-yl)amino)-4-cyanobenzamide], the “ERK1 Mass Mod (%)” value at Erk1 is on record as “E (provided a mass modification of ≧70%)”. In addition, on MEK1 activated ERK1 (setting [1]), the IC50 was < 100 nM.
As for `C=CC(=O)Nc1ccccc1Nc1nc(Nc2ccc(OCCCNC(=O)CCCC(=O)NCCCOCCOCCOCCCNC(=O)CCCC[C@H]3SC[C@H]4NC(=O)N[C@H]43)cc2OC)ncc1Cl` [Compound I-302, N^1-(3-(4-((4-((2-acrylamidophenyl)amino)-5-chloropyrimidin-2-yl)amino)-3-methoxyphenoxy)propyl)-N^5-(15-oxo-19-((3aR,4R,6aS)-2-oxohexahydro-1H-thieno[3,4-d]imidazol-4-yl)-4,7,10-trioxa-14-azanonadecyl)glutaramide], the “ERK1 Mass Mod (%)” value on Erk1 was “E (provided a mass modification of ≧70%)”. The IC50 at MEK1 activated ERK1 (setting [1]) was > 1000 nM.
As for `C=CC(=O)Nc1ccccc1Nc1nc(Nc2ccc(N3CCC[C@@H]3CO)cc2C#N)ncc1Cl` [Compound I-171, (R)—N-(2-((5-chloro-2-((2-cyano-4-(2-(hydroxymethyl)pyrrolidin-1-yl)phenyl)amino)pyrimidin-4-yl)amino)phenyl)acrylamide], the “ERK1 Mass Mod (%)” value on Erk1 is “E (provided a mass modification of ≧70%)”. Besides, at MEK1 activated ERK1 (setting [1]), the IC50 is > 1000 nM.
`C=CC(=O)Nc1cc(C)ccc1Nc1nc(N[C@@H]2CCN(S(=O)(=O)C=C)C2)ncc1C(F)(F)F` [Compound I-280, (R)—N-(5-Methyl-2-((5-(trifluoromethyl)-2-((1-(vinylsulfonyl)pyrrolidin-3-yl)amino)pyrimidin-4-yl)amino)phenyl)acrylamide]: the “ERK1 Mass Mod (%)” value on Erk1 is listed as “E (provided a mass modification of ≧70%)”. For the same compound, the IC50 at MEK1 activated ERK1 (setting [1]) is > 1000 nM.
Consider `Cc1ccc(C(N)=O)cc1Nc1ncc(Cl)c(Nc2ccccc2NC(=O)/C=C/CN(C)C)n1` [Compound I-218, (E)-3-((5-chloro-4-((2-(4-(dimethylamino)but-2-enamido)phenyl)amino)pyrimidin-2-yl)amino)-4-methylbenzamide], for which the “ERK1 Mass Mod (%)” value at Erk1 is reported as “G (proived a mass modification ≦30%)”. For the same compound, the IC50 at MEK1 activated ERK1 (setting [1]) is > 1000 nM.
In the case of `C=CC(=O)Nc1cc(OC)ccc1Nc1nc(Nc2ccc(N3CCC[C@H]3CO)cc2OC)ncc1Cl` [Compound I-159, (S)—N-(2-((5-chloro-2-((4-(2-(hydroxymethyl)pyrrolidin-1-yl)-2-methoxyphenyl)amino)pyrimidin-4-yl)amino)-5-methoxyphenyl)acrylamide], the “ERK1 Mass Mod (%)” value at Erk1 is given as “F (provided a mass modification of 31-69%)”. The IC50 on MEK1 activated ERK1 (setting [1]) is > 1000 nM.
On the same counts, the results for `N#CNC(=O)c1ccccc1Nc1nc(N[C@H]2CCCN(C(=O)CO)C2)ncc1C(F)(F)F` [Compound I-26, (S)—N-Cyano-2-((2-((1-(2-hydroxyacetyl)piperidin-3-yl)amino)-5-(trifluoromethyl)pyrimidin-4-yl)amino)benzamide] are “G (proived a mass modification ≦30%)” and > 1000 nM.
In the case of `C=CC(=O)Nc1ccccc1Nc1ccnc(Nc2ccc(N3CCN(C(C)=O)CC3)cc2OC)n1` [Compound I-154, N-(2-((2-((4-(4-acetylpiperazin-1-yl)-2-methoxyphenyl)amino)pyrimidin-4-yl)amino)phenyl)acrylamide], the “ERK1 Mass Mod (%)” value at Erk1 is reported as “G (proived a mass modification ≦30%)”. Also, at MEK1 activated ERK1 (setting [1]), the IC50 was > 1000 nM.
Consider `CCC(=O)Nc1ccccc1Nc1nc(N[C@H]2CCCN(C(=O)CO)C2)ncc1C(F)(F)F` [Compound I-318, (S)—N-(2-((2-((1-(2-hydroxyacetyl)piperidin-3-yl)amino)-5-(trifluoromethyl)pyrimidin-4-yl)amino)phenyl)propionamide], for which, at Erk1, the “ERK1 Mass Mod (%)” value is “G (proived a mass modification ≦30%)”. Further, on MEK1 activated ERK1 (setting [1]), the IC50 is < 100 nM.
Consider `C=CC(=O)Nc1cc(OC)ccc1Nc1nc(Nc2cc(OC)nc(N3CCN(C(C)=O)CC3)c2)ncc1Cl` [Compound I-297, N-(2-((2-((2-(4-acetylpiperazin-1-yl)-6-methoxypyridin-4-yl)amino)-5-chloropyrimidin-4-yl)amino)-5-methoxyphenyl)acrylamide], for which the “ERK1 Mass Mod (%)” value on Erk1 is on record as “E (provided a mass modification of ≧70%)”. Also, at MEK1 activated ERK1 (setting [1]), the IC50 is < 100 nM.
Regarding `C=CC(=O)Nc1ccccc1CNc1nc(N[C@H]2CCCN(C(=O)CO)C2)ncc1C(F)(F)F` [Compound I-45, (S)—N-(2-(((2-((1-(2-Hydroxyacetyl)piperidin-3-yl)amino)-5-(trifluoromethyl)pyrimidin-4-yl)amino)methyl)phenyl)acrylamide], the “ERK1 Mass Mod (%)” value at Erk1 is “G (proived a mass modification ≦30%)”. The IC50 at MEK1 activated ERK1 (setting [1]) is > 1000 nM.
For `C=CC(=O)N[C@H]1CCCC[C@@H]1Nc1nc(Nc2cc(C(N)=O)ccc2C)ncc1Cl` [Compound I-201, 3-((4-(((1S,2S)-2-acrylamidocyclohexyl)amino)-5-chloropyrimidin-2-yl)amino)-4-methylbenzamide], the “ERK1 Mass Mod (%)” value at Erk1 is listed as “G (proived a mass modification ≦30%)”. For the same compound, on MEK1 activated ERK1 (setting [1]), the IC50 was > 1000 nM.
Take `C=CC(=O)Nc1ccccc1Nc1nc(N[C@H]2CCC[C@@H](C(N)=O)C2)ncc1C(F)(F)F` [Compound I-118, (1R,3S)-3-((4-((2-acrylamidophenyl)amino)-5-(trifluoromethyl)pyrimidin-2-yl)amino)cyclohexanecarboxamide]: the “ERK1 Mass Mod (%)” value on Erk1 was “E (provided a mass modification of ≧70%)”. In addition, the IC50 at MEK1 activated ERK1 (setting [1]) is < 100 nM.
The like results for `C=CC(=O)Nc1cc(OC)ccc1Oc1nc(Nc2ccc(N3CCC[C@H]3C(N)=O)cc2OC)ncc1C(N)=O` [Compound I-265, (S)-4-(2-acrylamido-4-methoxyphenoxy)-2-((4-(2-carbamoylpyrrolidin-1-yl)-2-methoxyphenyl)amino)pyrimidine-5-carboxamide] were, in that order, “F (provided a mass modification of 31-69%)” and > 1000 nM.
As to `C=CC(=O)Nc1cc(C)ccc1Nc1nc(N[C@@H]2CCCN(S(=O)(=O)C=C)C2)ncc1C(F)(F)F` [Compound I-278, (R)—N-(5-Methyl-2-((5-(trifluoromethyl)-2-((1-(vinylsulfonyl)piperidin-3-yl)amino)pyrimidin-4-yl)amino)phenyl)acrylamide], the “ERK1 Mass Mod (%)” value at Erk1 is on record as “F (provided a mass modification of 31-69%)”. Moreover, at MEK1 activated ERK1 (setting [1]), the IC50 is > 1000 nM.
With `C=CC(=O)Nc1ccc(C)cc1Nc1nc(N[C@H]2CCCN(C(=O)CO)C2)ncc1C(F)(F)F` [Compound I-37, (S)—N-(2-((2-((1-(2-hydroxyacetyl)piperidin-3-yl)amino)-5-(trifluoromethyl)pyrimidin-4-yl)amino)-4-methylphenyl)acrylamide], the “ERK1 Mass Mod (%)” value at Erk1 is recorded as “E (provided a mass modification of ≧70%)”. At MEK1 activated ERK1 (setting [1]), the IC50 was < 100 nM.
In the case of `C=C(C)S(=O)(=O)Nc1cc(C)ccc1Nc1nc(NC2CCC(=O)CC2)ncc1C(F)(F)F` [Compound I-53, N-(5-Methyl-2-((2-((4-oxocyclohexyl)amino)-5-(trifluoromethyl)pyrimidin-4-yl)amino)phenyl)prop-1-ene-2-sulfonamide], the “ERK1 Mass Mod (%)” value on Erk1 is given as “G (proived a mass modification ≦30%)”. Also, the IC50 at MEK1 activated ERK1 (setting [1]) is < 100 nM.
